Laboratory results as given in US12502369B2, “Methods of cancer treatment” (K-GEN, INC., priority 2015, dated 2025).
Where two headings read alike, the source gives them in different places.

Tests used:
[1] = test system: HL60; assay: Proliferation assay (CellTiter Glo), HL60; format: cell-based; conditions: for Top inhibition %: 96 hours
Experimental: (§1) Briefly, cells at a density of 1,000-10,000 cells/well were seeded in 96-well plates and incubated at 37′C for 24 hours. A series of 9 different concentrations of compound stocks (500×) were created by 3-fold serial dilution in DMSO. These compounds were further diluted in culture media and then added to cells so that the final DMSO concentration was 0.2%. After 96 hours of incubation, 50 μL of CellTiter Glo reagent (Promega) was added to each well and luminescence was measured after 10 minutes using EnVision (PerkinElmer). […] The dose range for most compounds was 4.6 nM-30 μM. The dose ranges for some compounds were adjusted downward to 0.46 nM-3 μM or 0.08 nM-0.5 μM or 0.03 nM-0.2 μM. Luminescence from cells treated with […] alone was set as Max and % of inhibition was calculated as follows: Inhibition %=(Max-Sample value)/Max*100. Data was analyzed using XL-fit software (ID Business Solutions Ltd.) and EC50, relative EC50, and % of top inhibition were calculated. The results are shown in Tables 3-6 for pancreatic cancer, lung cancer, colon/gastric cancer, and leukemia cell lines.

[2] = test system: KP-4; assay: Proliferation assay (CellTiter Glo), KP-4; format: cell-based; conditions: for Top inhibition %: 96 hours
Experimental: as §1

[3] = test system: leukemia inhibitory factor (LIF); assay: Western blot of LIF in A549 cells; format: cell-based; conditions: for protein levels of the leukemia inhibitory factor (LIF): Western blot, concentrations of Table 8, 48 hours
Experimental: Cancer cells (2-8 million cells) were seeded in 10 cm dishes and grown overnight. For A549 lung cancer cell line, about 3 million cells were seeded. Cells were then treated with different drugs at indicated concentrations (see Table 8) for a period of time up to 48 hours. Cells were lysed in 0.3-0.5 mL of RIPA buffer (Sigma) supplemented with protease inhibitors (Roche) and phosphatase inhibitors (Sigma). Lysates were assayed for protein concentration using BCA kit (Pierce). Normalized amount of lysates (20-30 μg protein/lane) were run on 4-12% NuPage gel (Life Technologies) and the proteins were transferred to the PVDF or nitrocellulose membrane using iBlot® Transfer Stack (Life Technologies). The membranes were probed with primary antibodies shown in Table 8 at 4° C. overnight after blocking with 1×TBST containing 5% non-fat milk. Antibodies from other vendors could also be used in Western blot analysis. After washing 5 times with 1×TBS containing 0.1% Tween20, the membranes were probed with 2nd antibodies Anti-mouse IgG Dylight 800 conjugate or Anti-rabbit IgG DyLight 680 conjugate (1:10000; Cell signaling or similar IR 2nd antibodies from different vendors) at room temperature for one hour. After washing 5 times, the membranes were scanned using Odyssey® Imaging System (Licor Biosciences).

[4] = test system: THP1; assay: Proliferation assay (CellTiter Glo), THP1; format: cell-based; conditions: for Top inhibition %: 96 hours
Experimental: as §1

[5] = test system: Colo205; assay: Proliferation assay (CellTiter Glo), Colo205; format: cell-based; conditions: Colo205 (WT K-ras)
Experimental: as §1, with “calculated.” for “calculated. The results are shown in Tables 3-6 for pancreatic cancer, lung cancer, colon/gastric cancer, and leukemia cell lines.”
(§2) Other cancer cell lines having wild-type K-ras status and K-ras mutation at G12 were also screened using the PKC activator compounds. […] K-104 was tested in a range of 0.03 nM-0.2 μM. […] The dose ranges were adjusted downward to 0.46 nM-3 μM for K-102 and 0.08 nM-0.5 μM for K-103 for some cell lines.

[6] = test system: HT29; assay: Proliferation assay (CellTiter Glo), HT29; format: cell-based; conditions: HT29 (WT K-ras)
Experimental: as §1, with “calculated.” for “calculated. The results are shown in Tables 3-6 for pancreatic cancer, lung cancer, colon/gastric cancer, and leukemia cell lines.”
as §2

[7] = test system: H838; assay: Proliferation assay (CellTiter Glo), H838; format: cell-based; conditions: H838 (WT K-ras)
Experimental: as §1, with “calculated.” for “calculated. The results are shown in Tables 3-6 for pancreatic cancer, lung cancer, colon/gastric cancer, and leukemia cell lines.”
as §2

[8] = test system: A549; assay: Proliferation assay (CellTiter Glo), A549; format: cell-based; conditions: for Top inhibition %: 96 hours
Experimental: as §1

[9] = test system: SW620; assay: Proliferation assay (CellTiter Glo), SW620; format: cell-based; conditions: for Top inhibition %: 96 hours; for EC50: read-out: Ab EC50
Experimental: as §1

[10] = test system: H441; assay: Proliferation assay (CellTiter Glo), H441; format: cell-based; conditions: for Top inhibition %: 96 hours
Experimental: as §1

[11] = test system: Capan-1; assay: Proliferation assay (CellTiter Glo), Capan-1; format: cell-based; conditions: for Top inhibition %: 96 hours
Experimental: as §1

[12] = test system: Panc2.03; assay: Proliferation assay (CellTiter Glo), Panc2.03; format: cell-based; conditions: for Top inhibition %: 96 hours
Experimental: as §1

[13] = test system: BxPC-3; assay: Proliferation assay (CellTiter Glo), BxPC-3; format: cell-based; conditions: BxPC-3 (WT K-ras)
Experimental: as §1, with “calculated.” for “calculated. The results are shown in Tables 3-6 for pancreatic cancer, lung cancer, colon/gastric cancer, and leukemia cell lines.”
as §2

[14] = test system: PKCδ, PKCμ, c-Raf in MH22A; assay: Activation of PKC isoforms in hepatoma cell line MH22A, Western blot; format: cell-based, mouse
[15] = test system: PKCδ, PKCμ, c-Raf in xMiaPaCa-2, MiaPaCa-2, Panc6.03, Panc1; assay: Activation of PKC isoforms in pancreatic cancer cell lines, Western blot; format: cell-based
[16] = test system: PKC isoforms in Panc2.13 cells; assay: Time course of activation of PKC isoforms in Panc2.13; format: cell-based; conditions: extended periods (16 h and 24 h)
Experimental: Cells of pancreatic cancer cell line Panc2.13 were seeded as described above, and the cell confluence was between 40-80% the next day. […] Phosphorylation at multiple PKC isoforms, such as Ser744/748 or Ser916 for PKCμ, phosphorylation at Thr638/641 for PKCα/β, phosphorylation at Ser660 for PKCβII (pan-PKC), phosphorylation at Ser643/676 for PKCδ/θ, and phosphorylation at Thr505 for PKCδ, were detected.

[17] = test system: MBT-2; assay: Anti-cell proliferative effects, MBT-2; format: cell-based, mouse
[18] = absolute EC50, 96 hours, read-out: Ab EC50
[19] = relative EC50, 96 hours, read-out: Re EC50
[20] = Homo sapiens, absolute EC50, 96 hours, read-out: Ab EC50
[21] = Homo sapiens, relative EC50, 96 hours, read-out: Re EC50

## CC(=O)OCC1=C[C@H]2[C@@H]3C(C)(C)[C@]3(OC(C)=O)C[C@@H](C)[C@]2(O)C2C=C(C)C(=O)[C@@]2(O)C1 (stereo partly shown) [Compound K-101E]
[1]
  Top inhibition %: 63.4%
[1]; [18]
  EC50: 3050 nM
[1]; [19]
  EC50: 1920 nM
[2]
  Top inhibition %: 69.1%
[2]; [18]
  EC50: 1280 nM
[2]; [19]
  EC50: 680 nM
[3]
  protein levels of the leukemia inhibitory factor (LIF): did not affect
[4]
  Top inhibition %: 51.6%
[4]; [18]
  EC50: 3600 nM
[4]; [19]
  EC50: 1020 nM
[5]
  Top inhibition %: 85.8%
[6]
  Top inhibition %: 31.7%
[7]
  Top inhibition %: 26.8%
[8]
  Top inhibition %: 78.7%
[8]; [18]
  EC50: 2640 nM
[8]; [19]
  EC50: 1560 nM
[9]
  Top inhibition %: 0.0%
[9]; absolute EC50, 96 hours
  EC50: > 30000 nM
[10]
  Top inhibition %: 49.1%
[10]; [18]
  EC50: > 30000 nM
[10]; [19]
  EC50: 2610 nM
[11]
  Top inhibition %: 44.6%
[11]; [18]
  EC50: > 30000 nM
[11]; [19]
  EC50: 830 nM
[12]
  Top inhibition %: 36.5%
[12]; [18]
  EC50: > 30000 nM
[12]; [19]
  EC50: 1920 nM
[13]
  Top inhibition %: 38.87%

## C/C=C(/C)C(=O)O[C@H]1C(C)=C[C@]23C(=O)[C@@H](C=C(CO)[C@@H](O)[C@]12O)[C@H]1[C@@H](C[C@H]3C)C1(C)C [Compound K-102, Ingenol-3-angelate, reference compound]
[14]; MH22A, basal levels high, K101A 1 μM, K102 0.1 μM
  phosphorylation of PKCδ at Thr505, PKCμ at Ser744/748, PKCμ at Ser916, c-Raf at Ser338: did not induce further phosphorylation
[15]; all four pancreatic cell lines, K101A 1 μM, K102 0.1 μM
  phosphorylations of PKCδ at Thr505 and PKCμ at Ser744/748: increased
[15]; pancreatic cell lines, K101A 1 μM, K102 0.1 μM
  phosphorylation of c-Raf at Ser338: induced phosphorylation
[16]; K102 0.1 μM, K103 0.01 μM versus K101A
  reducing the phosphorylation at βII Ser660 of PKC (pan), to a lesser extent Thr638/641 of PKCα/β: more potent
[17]
  sensitivity to anti-cell proliferative effects: sensitive

## CC(=O)O[C@@]12C[C@@H](C)[C@]3(O)C4C=C(C)C(=O)[C@@]4(O)CC(CO)=C[C@H]3[C@@H]1C2(C)C (stereo partly shown) [Compound K-101A, Prostratin]
[14]
  phosphorylation of PKCδ at Thr505, PKCμ at Ser744/748, PKCμ at Ser916, c-Raf at Ser338: did not induce further phosphorylation
[1]
  Top inhibition %: 61.3%
[1]; Homo sapiens, HL-60, absolute EC50, 96 hours, read-out: Ab EC50
  EC50: 470 nM
[1]; Homo sapiens, HL-60, relative EC50, 96 hours, read-out: Re EC50
  EC50: 400 nM
[2]
  Top inhibition %: 63.3%
[2]; [20]
  EC50: 400 nM
[2]; [21]
  EC50: 190 nM
[3]; 0.5 uM of K-101A
  LIF protein level: lowered
[3]
  protein levels of the leukemia inhibitory factor (LIF): dose-dependent reduction
[15]
  phosphorylation of c-Raf at Ser338: induced phosphorylation
  phosphorylations of PKCδ at Thr505 and PKCμ at Ser744/748: increased
[4]
  Top inhibition %: 51.8%
[4]; Homo sapiens, THP-1, absolute EC50, 96 hours, read-out: Ab EC50
  EC50: 870 nM
[4]; Homo sapiens, THP-1, relative EC50, 96 hours, read-out: Re EC50
  EC50: 300 nM
[5]
  Top inhibition %: 83.6%
[6]
  Top inhibition %: 12.8%
[7]
  Top inhibition %: 10.1%
[8]
  Top inhibition %: 76.0%
[8]; [20]
  EC50: 490 nM
[8]; [21]
  EC50: 270 nM
[9]
  Top inhibition %: 0.0%
[9]; Homo sapiens, SW-620, absolute EC50, 96 hours
  EC50: > 30000 nM
[10]
  Top inhibition %: 42.1%
[10]; Homo sapiens, NCI-H441, absolute EC50, 96 hours, read-out: Ab EC50
  EC50: > 30000 nM
[10]; Homo sapiens, NCI-H441, relative EC50, 96 hours, read-out: Re EC50
  EC50: 320 nM
[16]; K101A 1 μM versus K102, K103
  reducing the phosphorylation at Ser643/676 of PKCδ/θ: more potent
[11]
  Top inhibition %: 37.1%
[11]; [20]
  EC50: > 30000 nM
[11]; [21]
  EC50: 310 nM
[17]
  sensitivity to anti-cell proliferative effects: sensitive
[12]
  Top inhibition %: 27.0%
[12]; Homo sapiens, Panc203, absolute EC50, 96 hours, read-out: Ab EC50
  EC50: > 30000 nM
[12]; Homo sapiens, Panc203, relative EC50, 96 hours, read-out: Re EC50
  EC50: 120 nM
[13]
  Top inhibition %: 40.11%
